Assay results published in patent publication US20240215576A1, “HEAT-RESISTANT MOLD GROWTH INHIBITOR, FOOD AND DRINK IN WHICH GROWTH OF HEAT-RESISTANT MOLD IS INHIBITED, AND METHOD FOR INHIBITING GROWTH OF HEAT-RESISTANT MOLD” (NIPPON SHINYAKU CO., LTD., priority 2021, published 2024).
Where a name gives a salt, the structure may show the parent alone.

Legend:
N. primulina [1] = assay: Growth of N. primulina in Trypticase soy broth medium stored 7 days at 25° C.; format: cell-based, Neosartorya primulina; details: for Growth of N. primulina after lapse of 7 days under storage at 25° C.: concentration 1000 ppm; for growth inhibition effect against N. primulina: 1000 ppm
Procedure: (§1) Diethyl fumarate and 2-decenoic acid were prepared for use in Examples. In addition, the following components reported to have a growth inhibition effect against normal mold (non-heat-resistant mold) were prepared for use in Comparative Examples: palmitic acid, trans-anethole, benzyl alcohol, cinnamic acid, hinokitiol, salicylic acid, hexanal, 2-mercapto benzothiazole, p-cymene, 1,8-cineole, α-pinene, estragole, 4-hydroxy-3,5-dimethoxybenzoic acid, and linalyl acetate. Then, each component was added to a medium of Trypticase soy broth such that the concentration of each component was as shown in Table 3 below.
(§2) These media were stored for 7 days under an atmosphere at 25° C. […] In Table, those showing the growth are represented by “+,” and those showing no growth are represented by “−.”

B. fulva [2] = assay: Growth of B. fulva in Trypticase soy broth medium stored 7 days at 25° C.; format: cell-based, Byssochlamys fulva; details: for Growth of B. fulva after lapse of 7 days under storage at 25° C.: concentration 1000 ppm; for growth inhibition effect against B. fulva: 1000 ppm
Procedure: as §1, §2

N. primulina [3] = assay: Growth of N. primulina in tomato juice stored at 25° C.; format: cell-based, Neosartorya primulina; parameters: key to Growth of N. primulina, 5 days / Growth of N. primulina, 7 days / Growth of N. primulina, 10 days / Growth of N. primulina, 14 days: those showing the growth of N. primulina are represented by “+,”; those showing no growth are represented by “−.”; details: for growth inhibition effect against N. primulina after the lapse of 14 days: high concentration of the active component (270 ppm); for Growth of N. primulina, 3 days / Growth of N. primulina, 5 days / Growth of N. primulina, 7 days / Growth of N. primulina, 10 days / Growth of N. primulina, 14 days: storage at 25° C.
Procedure: Diethyl fumarate or 2-decenoic acid was added to tomato juice (100% pure, salt-free) such that the concentration of the component was as shown in Table 2 below. […] In Table 2, those showing the growth of N. primulina are represented by “+,” and those showing no growth are represented by “−.”

B. fulva [4] = assay: Growth of B. fulva in tomato juice stored at 25° C.; format: cell-based, Byssochlamys fulva; details: for generation of B. fulva after the lapse of 14 days: 25° C., high concentration of the active component (270 ppm); for Growth of B. fulva, 3 days / Growth of B. fulva, 5 days / Growth of B. fulva, 7 days / Growth of B. fulva, 10 days / Growth of B. fulva, 14 days: storage at 25° C.
Procedure: Diethyl fumarate or 2-decenoic acid was added to tomato juice (100% pure, salt-free) such that the concentration of the component was as shown in Table 1 below. […] In Table 1, those showing the growth of B. fulva are represented by “+,” and those showing no growth are represented by “−.”

Question: How did the “Growth of N. primulina after lapse of 7 days under storage at 25° C.” value (shortened to “Growth of N. primulina after lapse … at 25° C.”) (N. primulina [1]) turn out when CC12CCC(CC1)C(C)(C)O2 [1,8-Cineole] was run?
Answer: +

Question: And the “Growth of B. fulva after lapse of 7 days under storage at 25° C.” value (“Growth of B. fulva after lapse of 7 days” below) (B. fulva [2])?
Answer: +

Question: How did the “growth inhibition effect against N. primulina after the lapse of 14 days” value (N. primulina [3]; 25° C.) turn out when CCCCCCC/C=C/C(=O)O [2-Decenoic acid, (E)-dec-2-enoic acid] was run?
Answer: the effect is maintained

Question: What about the “Growth of N. primulina, 3 days” value (N. primulina [3]; 70 ppm) of the same compound?
Answer: −

Question: What about the “Growth of N. primulina, 5 days” value (N. primulina [3]; 70 ppm) of the same compound?
Answer: +

Question: What about the “Growth of N. primulina, 7 days” value (N. primulina [3]; 70 ppm) of the same compound?
Answer: +

Question: What about the “Growth of N. primulina, 10 days” value (N. primulina [3]; 70 ppm, 10 days) of the same compound?
Answer: +

Question: And the “Growth of N. primulina, 14 days” value (N. primulina [3]; 70 ppm)?
Answer: +

Question: And the “Growth of N. primulina, 3 days” value (N. primulina [3]; 270 ppm)?
Answer: −

Question: And the “Growth of N. primulina, 5 days” value (N. primulina [3]; 270 ppm)?
Answer: −

Question: What about the “Growth of N. primulina, 7 days” value (N. primulina [3]; 270 ppm) of the same compound?
Answer: −

Question: What about the “Growth of N. primulina, 10 days” value (N. primulina [3]; 270 ppm, 10 days) of the same compound?
Answer: −

Question: What about the “Growth of N. primulina, 14 days” value (N. primulina [3]; 270 ppm) of the same compound?
Answer: −

Question: What about the “growth inhibition effect against N. primulina” value (N. primulina [1]) of the same compound?
Answer: exhibit the growth inhibition effect

Question: And the “Growth of N. primulina after lapse … at 25° C.” value (N. primulina [1])?
Answer: −

Question: And the “growth inhibition effect against B. fulva” value (B. fulva [2])?
Answer: exhibit the growth inhibition effect

Question: What about the “Growth of B. fulva after lapse of 7 days” value (B. fulva [2]) of the same compound?
Answer: −

Question: What about the “generation of B. fulva after the lapse of 14 days” value (B. fulva [4]) of the same compound?
Answer: no generation

Question: And the “Growth of B. fulva, 3 days” value (B. fulva [4]; 70 ppm)?
Answer: −

Question: What about the “Growth of B. fulva, 5 days” value (B. fulva [4]; 70 ppm) of the same compound?
Answer: −

Question: What about the “Growth of B. fulva, 7 days” value (B. fulva [4]; 70 ppm) of the same compound?
Answer: −

Question: And the “Growth of B. fulva, 10 days” value (B. fulva [4]; 70 ppm)?
Answer: +

Question: What about the “Growth of B. fulva, 14 days” value (B. fulva [4]; 70 ppm) of the same compound?
Answer: +

Question: And the “Growth of B. fulva, 3 days” value (B. fulva [4]; 270 ppm)?
Answer: −

Question: What about the “Growth of B. fulva, 5 days” value (B. fulva [4]; 270 ppm) of the same compound?
Answer: −

Question: What about the “Growth of B. fulva, 7 days” value (B. fulva [4]; 270 ppm) of the same compound?
Answer: −

Question: And the “Growth of B. fulva, 10 days” value (B. fulva [4]; 270 ppm)?
Answer: −

Question: And the “Growth of B. fulva, 14 days” value (B. fulva [4]; 270 ppm)?
Answer: −

Question: Which “Growth of N. primulina after lapse … at 25° C.” value (N. primulina [1]) does the source give for Sc1nc2ccccc2s1 [2-Mercapto benzothiazole] here?
Answer: +

Question: And the “Growth of B. fulva after lapse of 7 days” value (B. fulva [2])?
Answer: +

Question: COc1cc(C(=O)O)cc(OC)c1O [4-Hydroxy-3,5-dimethoxybenzoic acid] was tested. Which “Growth of N. primulina after lapse … at 25° C.” value (N. primulina [1]) did it give?
Answer: +

Question: And the “Growth of B. fulva after lapse of 7 days” value (B. fulva [2])?
Answer: +

Question: With OCc1ccccc1 [Benzyl alcohol] as the compound, how does the “Growth of N. primulina after lapse … at 25° C.” value (N. primulina [1]) read?
Answer: +

Question: And the “Growth of B. fulva after lapse of 7 days” value (B. fulva [2])?
Answer: +

Question: What does the source list for O=C(O)C=Cc1ccccc1 [Cinnamic acid]?
Answer: Growth of N. primulina after lapse of 7 days under storage at 25° C. (N. primulina [1]): +; Growth of B. fulva after lapse of 7 days under storage at 25° C. (B. fulva [2]): +

Question: How did the “generation of N. primulina after the lapse of 10 days” value (N. primulina [3]; 25° C., 10 days) turn out when CCOC(=O)/C=C/C(=O)OCC [Diethyl fumarate, diethyl (E)-but-2-enedioate] was run?
Answer: no generation

Question: What about the “growth inhibition effect against N. primulina after the lapse of 14 days” value (N. primulina [3]; 25° C.) of the same compound?
Answer: the effect is maintained

Question: And the “Growth of N. primulina, 3 days” value (N. primulina [3]; 70 ppm)?
Answer: −

Question: And the “Growth of N. primulina, 5 days” value (N. primulina [3]; 70 ppm)?
Answer: −

Question: What about the “Growth of N. primulina, 7 days” value (N. primulina [3]; 70 ppm) of the same compound?
Answer: −

Question: What about the “Growth of N. primulina, 10 days” value (N. primulina [3]; 70 ppm, 10 days) of the same compound?
Answer: −

Question: And the “Growth of N. primulina, 14 days” value (N. primulina [3]; 70 ppm)?
Answer: +

Question: What about the “Growth of N. primulina, 3 days” value (N. primulina [3]; 270 ppm) of the same compound?
Answer: −

Question: And the “Growth of N. primulina, 5 days” value (N. primulina [3]; 270 ppm)?
Answer: −

Question: What about the “Growth of N. primulina, 7 days” value (N. primulina [3]; 270 ppm) of the same compound?
Answer: −

Question: What about the “Growth of N. primulina, 10 days” value (N. primulina [3]; 270 ppm, 10 days) of the same compound?
Answer: −

Question: And the “Growth of N. primulina, 14 days” value (N. primulina [3]; 270 ppm)?
Answer: −

Question: And the “growth inhibition effect against N. primulina” value (N. primulina [1])?
Answer: exhibit the growth inhibition effect

Question: What about the “Growth of N. primulina after lapse … at 25° C.” value (N. primulina [1]) of the same compound?
Answer: −

Question: What about the “growth inhibition effect against B. fulva” value (B. fulva [2]) of the same compound?
Answer: exhibit the growth inhibition effect

Question: And the “Growth of B. fulva after lapse of 7 days” value (B. fulva [2])?
Answer: −

Question: What about the “generation of B. fulva after the lapse of 14 days” value (B. fulva [4]) of the same compound?
Answer: no generation

Question: What about the “Growth of B. fulva, 3 days” value (B. fulva [4]; 70 ppm) of the same compound?
Answer: −

Question: What about the “Growth of B. fulva, 5 days” value (B. fulva [4]; 70 ppm) of the same compound?
Answer: −

Question: What about the “Growth of B. fulva, 7 days” value (B. fulva [4]; 70 ppm) of the same compound?
Answer: −

Question: What about the “Growth of B. fulva, 10 days” value (B. fulva [4]; 70 ppm) of the same compound?
Answer: +

Question: And the “Growth of B. fulva, 14 days” value (B. fulva [4]; 70 ppm)?
Answer: +

Question: What about the “Growth of B. fulva, 3 days” value (B. fulva [4]; 270 ppm) of the same compound?
Answer: −

Question: And the “Growth of B. fulva, 5 days” value (B. fulva [4]; 270 ppm)?
Answer: −

Question: And the “Growth of B. fulva, 7 days” value (B. fulva [4]; 270 ppm)?
Answer: −

Question: What about the “Growth of B. fulva, 10 days” value (B. fulva [4]; 270 ppm) of the same compound?
Answer: −

Question: And the “Growth of B. fulva, 14 days” value (B. fulva [4]; 270 ppm)?
Answer: −

Question: What does the source list for C=CCc1ccc(OC)cc1 [Estragole]?
Answer: Growth of N. primulina after lapse of 7 days under storage at 25° C. (N. primulina [1]): +; Growth of B. fulva after lapse of 7 days under storage at 25° C. (B. fulva [2]): +

Question: How did the “Growth of N. primulina after lapse … at 25° C.” value (N. primulina [1]) turn out when CCCCCC=O [Hexanal] was run?
Answer: +

Question: What about the “Growth of B. fulva after lapse of 7 days” value (B. fulva [2]) of the same compound?
Answer: +

Question: With CC(C)c1cccc(=O)c(O)c1 [Hinokitiol] as the compound, how does the “Growth of N. primulina after lapse … at 25° C.” value (N. primulina [1]) read?
Answer: +

Question: And the “Growth of B. fulva after lapse of 7 days” value (B. fulva [2])?
Answer: +

Question: What does the source list for C=CC(C)(CCC=C(C)C)OC(C)=O (stereo not drawn) [Linalyl acetate]?
Answer: Growth of N. primulina after lapse of 7 days under storage at 25° C. (N. primulina [1]): +; Growth of B. fulva after lapse of 7 days under storage at 25° C. (B. fulva [2]): +

Question: For CCCCCCCCCCCCCCCC(=O)O [Palmitic acid], which “Growth of N. primulina after lapse … at 25° C.” value (N. primulina [1]) is on record?
Answer: +

Question: What about the “Growth of B. fulva after lapse of 7 days” value (B. fulva [2]) of the same compound?
Answer: +

Question: What does the source list for O=C(O)c1ccccc1O [Salicylic acid]?
Answer: Growth of N. primulina after lapse of 7 days under storage at 25° C. (N. primulina [1]): +; Growth of B. fulva after lapse of 7 days under storage at 25° C. (B. fulva [2]): +

Question: Which results are given for C/C=C/c1ccc(OC)cc1 [Trans-anethole]?
Answer: Growth of N. primulina after lapse of 7 days under storage at 25° C. (N. primulina [1]): +; Growth of B. fulva after lapse of 7 days under storage at 25° C. (B. fulva [2]): +

Question: For Cc1ccc(C(C)C)cc1 [p-Cymene], which “Growth of N. primulina after lapse … at 25° C.” value (N. primulina [1]) is on record?
Answer: +

Question: And the “Growth of B. fulva after lapse of 7 days” value (B. fulva [2])?
Answer: +

Question: How did the “Growth of N. primulina after lapse … at 25° C.” value (N. primulina [1]) turn out when CC1=CCC2CC1C2(C)C (stereo not drawn) [α-Pinene] was run?
Answer: +

Question: What about the “Growth of B. fulva after lapse of 7 days” value (B. fulva [2]) of the same compound?
Answer: +
